Reference: ChEMBL document CHEMBL4393697, “Lipophilic efficient phenylthiazoles with potent undecaprenyl pyrophosphatase inhibitory activity” (Eur J Med Chem, 2019)
Values after ≈ are worked out from the molar mass of the structure shown.

Columns and labels:
[1] = tested on: Staphylococcus aureus; assay: Antibacterial activity against Staphylococcus aureus NRS107 assessed as reduction in bacterial cell growth incubated for 18 to 20 hrs by broth microdilution method; format: functional
[2] = tested on: Staphylococcus aureus; assay: Antibacterial activity against methicillin resistant Staphylococcus aureus USA400 assessed as reduction in bacterial cell growth incubated for 18 to 20 hrs by broth microdilution method; format: functional
[3] = tested on: Staphylococcus aureus; assay: Antibacterial activity against methicillin-resistant Staphylococcus aureus USA300 assessed as reduction in bacterial cell growth incubated for 18 to 20 hrs by broth microdilution method; format: functional
[4] = tested on: Staphylococcus aureus; assay: Antibacterial activity against methicillin resistant Staphylococcus aureus NRS119 assessed as reduction in bacterial cell growth incubated for 18 to 20 hrs by broth microdilution method; format: functional
[5] = tested on: Staphylococcus aureus; assay: Antibacterial activity against vancomycin resistant Staphylococcus aureus VRS10 assessed as reduction in bacterial cell growth incubated for 18 to 20 hrs by broth microdilution method; format: functional
[6] = tested on: Staphylococcus aureus; assay: Antibacterial activity against Staphylococcus aureus ATCC 6538 assessed as reduction in bacterial cell growth incubated for 18 to 20 hrs by broth microdilution method; format: functional
[7] = tested on: Staphylococcus epidermidis; assay: Antibacterial activity against methicillin resistant Staphylococcus epidermidis NRS101 assessed as reduction in bacterial cell growth incubated for 18 to 20 hrs by broth microdilution method; format: functional
[8] = tested on: Staphylococcus aureus; assay: Antibacterial activity against vancomycin resistant Staphylococcus aureus VRS12 assessed as reduction in bacterial cell growth incubated for 18 to 20 hrs by broth microdilution method; format: functional
[9] = tested on: Staphylococcus aureus; assay: Antibacterial activity against vancomycin resistant Staphylococcus aureus VRS11a assessed as reduction in bacterial cell growth incubated for 18 to 20 hrs by broth microdilution method; format: functional
[10] = tested on: Staphylococcus aureus; assay: Antibacterial activity against intracellular methicillin resistant Staphylococcus aureus USA400 infected in mouse J774 cells assessed as log10 reduction of viable bacterial cells incubated for 24 hrs followed by re-plating on tryptic soy agar plates at 37 degC for 18 to 22 hrs by broth microdilution assay; format: functional
[11] = tested on: Enterococcus faecalis; assay: Antibacterial activity against vancomycin resistant Enterococcus faecalis ATCC 51299 assessed as reduction in bacterial cell growth incubated for 18 to 20 hrs by broth microdilution method; format: functional
[12] = tested on: Enterococcus faecium; assay: Antibacterial activity against vancomycin resistant Enterococcus faecium ATCC 700221 assessed as reduction in bacterial cell growth incubated for 18 to 20 hrs by broth microdilution method; format: functional
[13] = tested on: Listeria monocytogenes; assay: Antibacterial activity against Listeria monocytogenes ATCC 19111 assessed as reduction in bacterial cell growth incubated for 18 to 20 hrs by broth microdilution method; format: functional
[14] = tested on: Streptococcus pneumoniae; assay: Antibacterial activity against Cephalosporin resistant Streptococcus pneumoniae ATCC 51916 assessed as reduction in bacterial cell growth incubated for 18 to 20 hrs by broth microdilution method; format: functional
[15] = tested on: Streptococcus pneumoniae; assay: Antibacterial activity against Methicillin resistant Streptococcus pneumoniae ATCC 700677 assessed as reduction in bacterial cell growth incubated for 18 to 20 hrs by broth microdilution method; format: functional
[16] = tested on: Staphylococcus aureus; assay: Bactericidal activity against Staphylococcus aureus ATCC 6538 assessed as reduction in bacterial cell growth incubated for 18 to 20 hrs followed by re-plating on tryptic soy agar plates at 37 degC for 18 hrs by broth microdilution assay; format: functional
[17] = tested on: Staphylococcus aureus; assay: Bactericidal activity against Staphylococcus aureus NRS107 assessed as reduction in bacterial cell growth incubated for 18 to 20 hrs followed by re-plating on tryptic soy agar plates at 37 degC for 18 hrs by broth microdilution assay; format: functional
[18] = tested on: Staphylococcus aureus; assay: Bactericidal activity against methicillin resistant Staphylococcus aureus NRS119 assessed as reduction in bacterial cell growth incubated for 18 to 20 hrs followed by re-plating on tryptic soy agar plates at 37 degC for 18 hrs by broth microdilution assay; format: functional
[19] = tested on: Staphylococcus aureus; assay: Bactericidal activity against methicillin-resistant Staphylococcus aureus USA300 assessed as reduction in bacterial cell growth incubated for 18 to 20 hrs followed by re-plating on tryptic soy agar plates at 37 degC for 18 hrs by broth microdilution assay; format: functional
[20] = tested on: Staphylococcus aureus; assay: Bactericidal activity against vancomycin resistant Staphylococcus aureus VRS10 assessed as reduction in bacterial cell growth incubated for 18 to 20 hrs followed by re-plating on tryptic soy agar plates at 37 degC for 18 hrs by broth microdilution assay; format: functional
[21] = tested on: Staphylococcus aureus; assay: Bactericidal activity against vancomycin resistant Staphylococcus aureus VRS11a assessed as reduction in bacterial cell growth incubated for 18 to 20 hrs followed by re-plating on tryptic soy agar plates at 37 degC for 18 hrs by broth microdilution assay; format: functional
[22] = tested on: Staphylococcus aureus; assay: Bactericidal activity against vancomycin resistant Staphylococcus aureus VRS12 assessed as reduction in bacterial cell growth incubated for 18 to 20 hrs followed by re-plating on tryptic soy agar plates at 37 degC for 18 hrs by broth microdilution assay; format: functional
[23] = tested on: Staphylococcus epidermidis; assay: Bactericidal activity against methicillin resistant Staphylococcus epidermidis NRS101 assessed as reduction in bacterial cell growth incubated for 18 to 20 hrs followed by re-plating on tryptic soy agar plates at 37 degC for 18 hrs by broth microdilution assay; format: functional
[24] = tested on: Enterococcus faecalis; assay: Bactericidal activity against vancomycin resistant Enterococcus faecalis ATCC 51299 assessed as reduction in bacterial cell growth incubated for 18 to 20 hrs followed by re-plating on tryptic soy agar plates at 37 degC for 18 hrs by broth microdilution assay; format: functional
[25] = tested on: Enterococcus faecium; assay: Bactericidal activity against vancomycin resistant Enterococcus faecium ATCC 700221 assessed as reduction in bacterial cell growth incubated for 18 to 20 hrs followed by re-plating on tryptic soy agar plates at 37 degC for 18 hrs by broth microdilution assay; format: functional
[26] = tested on: Listeria monocytogenes; assay: Bactericidal activity against Listeria monocytogenes ATCC 19111 assessed as reduction in bacterial cell growth incubated for 18 to 20 hrs followed by re-plating on tryptic soy agar plates at 37 degC for 18 hrs by broth microdilution assay; format: functional
[27] = tested on: Streptococcus pneumoniae; assay: Bactericidal activity against Cephalosporin resistant Streptococcus pneumoniae ATCC 51916 assessed as reduction in bacterial cell growth incubated for 18 to 20 hrs followed by re-plating on tryptic soy agar plates at 37 degC for 18 hrs by broth microdilution assay; format: functional
[28] = tested on: Streptococcus pneumoniae; assay: Bactericidal activity against Methicillin resistant Streptococcus pneumoniae ATCC 700677 assessed as reduction in bacterial cell growth incubated for 18 to 20 hrs followed by re-plating on tryptic soy agar plates at 37 degC for 18 hrs by broth microdilution assay; format: functional
[29] = tested on: Acinetobacter baumannii; assay: Antibacterial activity against Acinetobacter baumannii ATCC 19606 assessed as reduction in bacterial cell growth incubated for 18 to 20 hrs by broth microdilution method; format: functional
[30] = tested on: Escherichia coli; assay: Antibacterial activity against Escherichia coli BW25113 assessed as reduction in bacterial cell growth incubated for 18 to 20 hrs by broth microdilution method; format: functional
[31] = tested on: Escherichia coli; assay: Antibacterial activity against Escherichia coli JW55031 harboring deltatolC mutant assessed as reduction in bacterial cell growth incubated for 18 to 20 hrs by broth microdilution method; format: functional
[32] = tested on: Klebsiella pneumoniae; assay: Antibacterial activity against Klebsiella pneumoniae BAA-1706 assessed as reduction in bacterial cell growth incubated for 18 to 20 hrs by broth microdilution method; format: functional
[33] = tested on: Pseudomonas aeruginosa; assay: Antibacterial activity against Pseudomonas aeruginosa ATCC 15442 assessed as reduction in bacterial cell growth incubated for 18 to 20 hrs by broth microdilution method; format: functional
[34] = tested on: Acinetobacter baumannii; assay: Bactericidal activity against Acinetobacter baumannii ATCC 19606 assessed as reduction in bacterial cell growth incubated for 18 to 20 hrs followed by re-plating on tryptic soy agar plates at 37 degC for 18 hrs by broth microdilution assay; format: functional
[35] = tested on: Escherichia coli; assay: BActericidal activity against Escherichia coli BW25113 assessed as reduction in bacterial cell growth incubated for 18 to 20 hrs followed by re-plating on tryptic soy agar plates at 37 degC for 18 hrs by broth microdilution assay; format: functional
[36] = tested on: Escherichia coli; assay: Bactericidal activity against Escherichia coli JW55031 harboring deltatolC mutant assessed as reduction in bacterial cell growth incubated for 18 to 20 hrs followed by re-plating on tryptic soy agar plates at 37 degC for 18 hrs by broth microdilution assay; format: functional
[37] = tested on: Klebsiella pneumoniae; assay: Bactericidal activity against Klebsiella pneumoniae BAA-1706 assessed as reduction in bacterial cell growth incubated for 18 to 20 hrs followed by re-plating on tryptic soy agar plates at 37 degC for 18 hrs by broth microdilution assay; format: functional
[38] = tested on: Pseudomonas aeruginosa; assay: Bactericidal activity against Pseudomonas aeruginosa ATCC 15442 assessed as reduction in bacterial cell growth incubated for 18 to 20 hrs followed by re-plating on tryptic soy agar plates at 37 degC for 18 hrs by broth microdilution assay; format: functional
[39] = tested on: J774; assay: Cytotoxicity against mouse J774 assessed as reduction in cell viability at 16 ug/ml incubated for 24 hrs by MTS assay; format: cell-based; details: j774, 24 h
[40] = tested on: J774; assay: Cytotoxicity against mouse J774 cells reduction in cell viability up to 32 ug/ml incubated for 24 hrs by MTS assay; format: cell-based; details: j774, 24 h
[41] = Solubility of compound in PBS after 2 hrs by turbidity based absorbance analysis; format: physicochemical
[42] = tested on: Staphylococcus aureus; assay: Resistance index, ratio of MIC for antibacterial activity against methicillin-resistant Staphylococcus aureus USA400 treated over 1 passage to MIC for antibacterial activity against methicillin-resistant Staphylococcus aureus USA400 treated for 18 to 20 hrs by broth microdilution assay; format: functional
[43] = tested on: Staphylococcus aureus; assay: Resistance index, ratio of MIC for antibacterial activity against methicillin-resistant Staphylococcus aureus USA400 treated repeatedly over 9 passages to MIC for antibacterial activity against methicillin-resistant Staphylococcus aureus USA400 treated for 18 to 20 hrs by broth microdilution assay; format: functional

## C/C(=N\NC(=N)N)c1sc(-c2ccc(C#Cc3cccc(O)c3)cc2)nc1C
[1]
  MIC: 4 µg/mL (≈ 10.3 µM)
[2]
  MIC: 2 µg/mL (≈ 5.13 µM)
[3]
  MIC: 4 µg/mL (≈ 10.3 µM)
[4]
  MIC: 2 µg/mL (≈ 5.13 µM)
[5]
  MIC: 4 µg/mL (≈ 10.3 µM)
[6]
  MIC: 2 µg/mL (≈ 5.13 µM)
[7]
  MIC: 2 µg/mL (≈ 5.13 µM)
[8]
  MIC: 4 µg/mL (≈ 10.3 µM)
[9]
  MIC: 4 µg/mL (≈ 10.3 µM)
[10]
  Activity: 0.92 log10CFU
[11]
  MIC: 32 µg/mL (≈ 82.2 µM)
[12]
  MIC: ≤ 0.5 µg/mL
[13]
  MIC: 8 µg/mL (≈ 20.5 µM)
[14]
  MIC: 8 µg/mL (≈ 20.5 µM)
[15]
  MIC: 16 µg/mL (≈ 41.1 µM)
[16]
  MBC: 4 µg/mL (≈ 10.3 µM)
[17]
  MBC: 4 µg/mL (≈ 10.3 µM)
[18]
  MBC: 4 µg/mL (≈ 10.3 µM)
[19]
  MBC: 4 µg/mL (≈ 10.3 µM)
[20]
  MBC: 4 µg/mL (≈ 10.3 µM)
[21]
  MBC: 4 µg/mL (≈ 10.3 µM)
[22]
  MBC: 4 µg/mL (≈ 10.3 µM)
[23]
  MBC: 2 µg/mL (≈ 5.13 µM)
[24]
  MBC: 64 µg/mL (≈ 164 µM)
[25]
  MBC: 1 µg/mL (≈ 2.57 µM)
[26]
  MBC: 64 µg/mL (≈ 164 µM)
[27]
  MBC: 32 µg/mL (≈ 82.2 µM)
[28]
  MBC: 32 µg/mL (≈ 82.2 µM)
[29]
  MIC: > 64 µg/mL
[30]
  MIC: > 64 µg/mL
[31]
  MIC: 64 µg/mL (≈ 164 µM)
[32]
  MIC: > 64 µg/mL
[33]
  MIC: > 64 µg/mL
[34]
  MBC: > 64 µg/mL
[35]
  MBC: > 64 µg/mL
[36]
  MBC: > 64 µg/mL
[37]
  MBC: > 64 µg/mL
[38]
  MBC: > 64 µg/mL
[39]
  Activity: Non-Toxic
[40]
  Activity: Non-Toxic
[41]
  solubility kinetic at 2 h: 55 µM (≈ 21.4 µg/mL)

## CO[C@H]1/C=C/O[C@@]2(C)Oc3c(C)c(O)c4c(O)c(c(/C=N/N5CCN(C)CC5)c(O)c4c3C2=O)NC(=O)/C(C)=C\C=C\[C@H](C)[C@H](O)[C@@H](C)[C@@H](O)[C@@H](C)[C@H](OC(C)=O)[C@@H]1C [RIFAMPIN]
[42]
  Ratio: 29
[43]
  Ratio: >500000
